{
  "source": "paper PMC7686313",
  "about": "“Phase 1 study of mTORC1/2 inhibitor sapanisertib (TAK-228) in advanced solid tumours, with an expansion phase in renal, endometrial or bladder cancer” (British Journal of Cancer, 2020)",
  "key": {"[1]": {"test_system": "bladder cancer", "assay": "Tumour response according to RECIST v1.1, expansion phase, bladder cancer", "format": "in vivo, human", "settings": "expansion Bladder cancer (n = 13)", "description": "Patients could be considered for enrolment in one of three disease-specific cohorts: (1) advanced or recurrent endometrial adenocarcinoma with disease progression following ≥1 prior chemotherapy regimen; (2) advanced/metastatic urothelial cancer (carcinoma of the bladder, ureter and/or renal pelvis), progressive after ≥1 prior therapy in the metastatic/unresectable setting; (3) advanced RCC after failure of ≥1 prior antivascular endothelial growth factor therapy with no prior TORC1 inhibitor therapy, or progressed on treatment with TORC1 inhibitor therapy."}, "[2]": {"design": "method as in PMID 26800393", "settings": "advanced haematological malignancies, cited from earlier work"}, "[3]": {"assay": "Dose escalation: dose-limiting toxicities and maximum tolerated dose", "format": "in vivo", "description": "This Phase 1, open-label, dose-escalation and expansion study aimed to determine the safety, tolerability and preliminary efficacy of sapanisertib in patients with advanced solid tumours. During dose-escalation, patients received one of four sapanisertib dosing schedules: once daily (QD), once weekly (QW; days 1, 8, 15 and 22), QD for 3 days on/4 days off each week (QD × 3dQW; days 1–3, 8–10, 15–17 and 22–24) and QD for 5 days on/2 days off each week (QD × 5dQW; days 1–5, 8–12, 15–19 and 22–26) in a 28-day cycle with dose escalation based on a modified Fibonacci schema.\nThe maximum tolerated dose (MTD) was to be determined in the QD schedule before enrolment of initial single-patient cohorts for the QW and QDx3d QW schedules. […] Subsequent dose cohorts for that schedule included 3–6 patients. […] Once the MTD was identified for each of the dosing schedules, an additional six patients were enrolled to obtain further PK and safety data prior to expansion."}, "[4]": {"test_system": "p4EBP1, pS6, pPRAS40 and pNDRG1 (TORC1/2 biomarkers)", "assay": "Pharmacodynamics in skin biopsies (IHC)", "format": "in vivo, human", "settings": "doses of ≥4 mg; baseline vs days 8–15 (3 h postdose) of cycle 1", "protocol": "The tissue PK and PD of sapanisertib were investigated in skin and tumour biopsies. During dose escalation, 3-mm core skin biopsies were collected predose and on any day from 8–15 (3 h postdose) of cycle 1 for immunohistochemistry (IHC) assessment of mTORC1 downstream effects (p4EBP1, pS6) and pNDRG1 (Mosaic Laboratories, Lake Forest, CA). […] Archival tumour tissues for assessment of prognostic markers were collected at baseline.\nDuring dose-escalation, the PD effect of sapanisertib on downstream effectors of TORC1 (p4EBP1 and pS6) and TORC2 (pPRAS40 and pNDRG1) was measured in skin-tissue biopsies from 88 patients collected at baseline and days 8–15 (3 h postdose) of cycle 1. […] PD data in tumour tissue were limited due to the small number of samples. For the five patients with paired tumour samples available for review (biopsies at baseline and cycle 1, week 2), the levels of p4EBP1, pS6, pPRAS40 and pNDRG1 decreased after sapanisertib treatment (Supplementary Fig. 4)."}},
  "note": "Read-outs that look alike come from different tables or passages of the source.",
  "data": [
    {"molecule": "CC(C)n1nc(-c2ccc3oc(N)nc3c2)c2c(N)ncnc21", "note": "[Sapanisertib]", "values": [
      {"measurement": "Best overall response CR", "setting": "[1]", "result": "0 n (%)"},
      {"measurement": "Best overall response PD", "setting": "[1]", "result": "8 (62) n (%)"},
      {"measurement": "Best overall response PR", "setting": "[1]", "result": "0 n (%)"},
      {"measurement": "Best overall response SD < 6 months", "setting": "[1]", "result": "4 (31) n (%)"},
      {"measurement": "Best overall response SD ≥ 6 months", "setting": "[1]", "result": "1 (8) n (%)"},
      {"measurement": "CBR (CR + PR + SD ≥ 6 months)", "setting": "[1]", "result": "1 (8) n (%)"},
      {"measurement": "ORR (CR + PR)", "setting": "[1]", "result": "0 n (%)"},
      {"measurement": "MTD", "setting": "[2]; QD dosing", "result": 4, "unit": "mg"},
      {"measurement": "MTD", "setting": "[2]; QD × 3dQW", "result": 9, "unit": "mg"},
      {"measurement": "Recommended Phase 2 dose", "setting": "[3]; QD", "result": 5, "unit": "mg"},
      {"measurement": "DLTs", "setting": "[3]; QD 4 mg", "result": "Grade 3 hyperglycaemia"},
      {"measurement": "DLTs", "setting": "[3]; QD 6 mg", "result": "Grade 3 maculo-papular rash; grade 3 diarrhoea; grade 3 asthenia; grade 5 ventricular fibrillation/cardiac arrest"},
      {"measurement": "DLTs", "setting": "[3]; QD 7 mg", "result": "Grade 3 hyperglycaemia and grade 4 anaemia; grade 3 maculo-papular rash"},
      {"measurement": "Maximum tolerated dose (MTD)", "setting": "[3]; QD schedule", "result": 6, "unit": "mg"},
      {"measurement": "DLTs", "setting": "[3]; QD × 3dQW 9 mg", "result": "Grade 3 hypophosphatemia"},
      {"measurement": "DLTs", "setting": "[3]; QD × 3dQW 12 mg", "result": "Grade 3 stomatitis and grade 3 dehydration; grade 3 asthenia"},
      {"measurement": "DLTs", "setting": "[3]; QD × 3dQW 16 mg", "result": "Grade 3 stomatitis"},
      {"measurement": "DLTs", "setting": "[3]; QD × 3dQW 20 mg", "result": "Grade 3 stomatitis; grade 3 stomatitis"},
      {"measurement": "Maximum tolerated dose (MTD)", "setting": "[3]; QD × 3dQW schedule", "result": 9, "unit": "mg"},
      {"measurement": "DLTs", "setting": "[3]; QD × 5dQW 13 mg", "result": "Grade 3 fatigue; grade 3 asthenia; grade 3 stomatitis"},
      {"measurement": "Maximum tolerated dose (MTD)", "setting": "[3]; QD × 5dQW schedule", "result": 7, "unit": "mg"},
      {"measurement": "Recommended Phase 2 dose", "setting": "[3]; QW", "result": 30, "unit": "mg"},
      {"measurement": "DLTs", "setting": "[3]; QW 40 mg", "result": "Grade 3 dry mouth and fatigue; grade 3 asthenia"},
      {"measurement": "Maximum tolerated dose (MTD)", "setting": "[3]; QW schedule", "result": 40, "unit": "mg"},
      {"measurement": "Change in p4EBP1, pS6, pPRAS40 and pNDRG1 in skin", "setting": "[4]", "result": "Treatment-related decreases"}
    ]}
  ]
}
